Measured values: patent US20210346368A1, “ANTIBIOTIC SOLUTION AND METHOD OF INJECTION TO PREVENT OPHTHALMIC INFECTIONS” (priority 2017, published 2021)

Test: injection of moxifloxacin antibiotic solution into the anterior segment of the eye during surgery to prevent endophthalmitis
Assay type: in vivo
Protocol: Further details regarding the structure, preparation, and physical properties of moxifloxacin are provided in U.S. Pat. Nos. 4,990,517 and 5,607,942, and German application DE19937116, all of which are incorporated herein by reference. In one embodiment, the antibiotic solution may comprise […] of cyanocobalamin, or an amount sufficient to tint or color the resulting antibiotic solution. The antibiotic solution may further comprise any suitable carrier fluid (e.g., liquid diluents such as water, ethyl alcohol, or propylene glycol), so long as the resulting solution has osmotic values that are compatible with the aqueous humor of the eye and ophthalmic tissues. In one embodiment, the antibiotic solution is prepared and stored in a single-dose vial, without the need for preservatives. This allows the surgeon to provide an accurate concentration in sterile environments. Further, due to the antibiotic solution comprising cyanocobalamin, the resulting antibiotic solution is red in color. This provides a visual enhancement to the surgeon when injecting into the eye. For example, a surgeon would inject around 0.3 milliliters of the antibiotic solution (e.g., solution comprising moxifloxacin and cyanocobalamin) into the anterior segment of the eye during the intraoperative portion of cataract surgery. […]

With `COc1c(N2C[C@@H]3CCCN[C@@H]3C2)c(F)cc2c(=O)c(C(=O)O)cn(C3CC3)c12` [moxifloxacin] the “effectiveness (preliminary results)” value (200 micrograms to 600 micrograms of moxifloxacin injected into the eye) was “effective” and the risk of endophthalmitis (moxifloxacin injected into the anterior segment of the eye) was “significantly reduced or eliminated altogether”.
